The results in this text go back to PMC9995496, “A screen for MeCP2-TBL1 interaction inhibitors using a luminescence-based assay” (Scientific Reports, 2023).

One assay addresses T1, MeCP2-TBL1 interaction (MeCP2-SmBiT / TBL1-LgBiT) (Mus musculus, UniProt Q9QXE7).
T1 construct: expressed in transfected cells; crude lysate used as a cell-free assay
T1 sequence (Q9QXE7 166-527): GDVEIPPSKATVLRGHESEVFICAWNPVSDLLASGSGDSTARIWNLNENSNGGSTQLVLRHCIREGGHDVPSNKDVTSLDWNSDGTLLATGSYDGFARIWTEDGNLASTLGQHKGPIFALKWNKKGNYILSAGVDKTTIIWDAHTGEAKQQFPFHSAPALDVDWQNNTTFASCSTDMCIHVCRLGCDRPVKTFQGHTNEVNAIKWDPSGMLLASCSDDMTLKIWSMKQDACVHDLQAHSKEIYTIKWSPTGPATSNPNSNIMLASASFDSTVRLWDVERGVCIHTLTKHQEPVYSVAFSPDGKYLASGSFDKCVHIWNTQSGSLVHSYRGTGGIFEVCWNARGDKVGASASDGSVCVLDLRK
Briefly: MeCP2-TBL1 NanoLuc luciferase complementation assay (cell-free, extracts of transfected HEK293 cells). The format is binding, human. Conditions: primary screen of Asinex library, single well per compound. The source says: To facilitate the discovery of inhibitors of the interaction between MeCP2 and TBL1/TBLR1, we set out to devise a simple and scalable biochemical assay for measuring the interaction between these two proteins. We initially explored the possibility of screening compound libraries using a previously established fluorescence polarization assay that depends on purified recombinant TBL1/TBLR1[26]. […] The resulting luminescence signal depends on the affinity between the two interacting proteins of interest (Fig. 1A). This method was originally developed to allow for the interrogation of protein–protein interactions in vivo. However, in order to facilitate large scale screening of chemical libraries, we adapted the assay for use as a cell-free system.
We fused the large N-terminal fragment of NanoLuc (LgBiT) to the C-terminus of the WD repeat domains of both TBL1 and TBLR1, and the small C-terminal fragment of NanoLuc (SmBiT) to the C-terminus of the C-terminal half of MeCP2 (Fig. 1B and C). This region of MeCP2 contains the NID (NCoR interaction domain)—the motif in MeCP2 that binds to TBL1/TBLR1.
The AgeI-NotI restriction fragment (encoding EGFP) was then replaced with a codon optimized SmBiT sequence to yield the MeCP2-SmBiT expression plasmid. The TBL1-LgBiT expression vector was derived from a TBL1-mCherry plasmid[25] by replacing the AgeI-NotI restriction fragment (encoding mCherry) with a codon optimized LgBiT sequence. SmBiT-PRKACA and LgBiT-PRKAR2A plasmids are commercially available (Promega, N203 and N204).
Cells were harvested after 24 h and cell pellets were stored at − 80 °C.
In the screens described here, the lysate obtained from a single 15 cm plate was used for 2.5 384-well assay plates. NanoLuc substrate (furimazine) (Promega, N1110) was diluted 1000-fold in passive lysis buffer (Promega, E1941) and added 1:1 to the lysate. Screening libraries were purchased from Asinex[40] and ApexBio (FDA-approved Drug Library, L1021). Compounds were dispensed using an Echo acoustic dispenser and tested at a final concentration of 20 µM in a total assay volume of 20 μl in 384-well plate format. DMSO was added to each well at a final concentration of 0.2% (v/v) and wells containing only DMSO were used as negative control. After 30 min incubation at room temperature, luminescence was measured on a Tecan M1000 multi-mode plate reader. Raw luminescence reads from each well on each plate were normalized to the median luminescence signal for that plate. In the ApexBio screen, the scaled and normalized PKA signal for each compound was subtracted from the MeCP2-TBL1 signal for the same compound. After plate normalization the robust SSMD (SSMD*) was calculated as described elsewhere. A threshold of SSMD* ≥ 3 was applied for discerning primary hits.
Assays were performed as described above except instead of a single concentration, a threefold serial dilution ranging from 60 to 0.03 μM was tested in triplicate for each of the compounds. Half-maximal inhibitory concentrations were calculated using global nonlinear regression by fitting the response data sets of all compounds simultaneously with a four-parameter logistic curve of log inhibitor concentration versus normalized luminescence using GraphPad Prism. During fitting, the maximum and minimum curve values were shared between the data sets.
As for `CC(C)(C)c1ccc2c(c1)N(CC(=O)N1CCCCC1CCNC(=O)c1ccccc1)C(=O)CO2` (stereo not drawn) [BDE_33630290], the Inhibition percent is -2.18.

On to `CN(C)c1ncc(-c2cccc(C(N)=O)c2)c(C2CCCCN2CC(=O)NCc2ccccn2)n1` (stereo not drawn) [BDE_33632669], for which the Inhibition percent is -2.55.

Regarding `O=C(OCc1ccccc1)N1C[C@@H](O)[C@H](N(Cc2ccccc2)Cc2ccc(F)c(F)c2)C1` [BDE_33958860], the Inhibition percent turned out to be 12.36.

With `Cn1nc(C(F)(F)F)cc1C(=O)NCC[C@@H]1C[C@@H](S(=O)(=O)c2ccccc2)CCO1` [BDF_23100510], the Inhibition percent turned out to be 0.85.

Still in this assay, the particulars now being: primary screen of the Asinex library, sheet "Sargen output Asinex library", one well per compound.
As to `CNc1cccc(C2CCCN2Cc2ccc(-c3ccccc3C(=O)O)cc2)n1` (stereo not drawn) [BDE_30687673], the Inhibition percent was -2.37%.

For `O=C(O)c1ccccc1CN1CCCC(c2ncc(Cc3ccc(Cl)cc3)o2)C1` (stereo not drawn) [BDE_33511194], the Inhibition percent is listed as -2.52%.

As to `COc1cccc(Cc2cnc(C3CCCCN3C(=O)COc3ncnc4ccccc34)o2)c1` (stereo not drawn) [BDE_33513545], the Inhibition percent was found to be 0.39%.

Consider `COc1cccc(-c2cc(C(=O)N3CCCCC3c3ncc(Cc4ccccc4)o3)on2)c1` (stereo not drawn) [BDE_33514162], for which the Inhibition percent was 7.15%.

For `COc1ccccc1CC(=O)N1CCCCC1c1ncc(Cc2ccccc2OC)o1` (stereo not drawn) [BDE_33514655], the Inhibition percent was found to be 5.46%.

As to `COc1cccc(Cc2cnc(C3CCCCN3C(=O)Cc3ccccc3OC)o2)c1` (stereo not drawn) [BDE_33514656], the Inhibition percent is recorded as 2.98%.

In the case of `COCc1nc2ccccc2n1CC(=O)N1CCCCC1C1CCN(C(=O)c2cnc(C)cn2)CC1` (stereo not drawn) [BDE_33628056], the Inhibition percent was -2.31%.

Turning to `Cn1c(COCC(=O)N2CCCCC2c2cc(C(=O)NC3CCCC3)[nH]n2)nc2ccccc21` (stereo not drawn) [BDE_33628409], the Inhibition percent is given as -3.22%.

With `Cc1ccc2ncnc(NCCC(=O)N3CCCCC3c3cc(C(=O)NC4CCCC4)[nH]n3)c2c1` (stereo not drawn) [BDE_33629308], the Inhibition percent is 0.99%.

As for `Cc1cc(Oc2ccc(C(N)=O)cc2)nc(C2CCCCN2C(=O)CCCN2CCCCCC2)n1` (stereo not drawn) [BDE_33629625], the Inhibition percent is -1.16%.

For `O=C(NC1CCCC1)c1cc(C2CCCCN2C(=O)C2CCN(Cc3ccncc3)CC2)n[nH]1` (stereo not drawn) [BDE_33629993], the Inhibition percent is listed as -2.91%.

For the compound `Cc1ccc2nc(COCC(=O)N3CCCC3c3ccnc(-c4cccc(Cl)c4)n3)[nH]c2c1` (stereo not drawn) [BDE_33630067], the Inhibition percent is listed as 1.05%.

Turning to `COc1ccc(S[C@@H]2CCO[C@@H](CCNC(=O)c3cc(OC)nc(OC)n3)C2)cc1` [BDF_22929100], the Inhibition percent is recorded as -1.50%.

Regarding `CCc1nnsc1C(=O)N(CC)[C@H]1CCO[C@@H](c2cccc(-c3cncnc3)c2)C1` [BDF_23117916], the Inhibition percent was -3.67%.

For the compound `CCN(Cc1cnn(-c2ccc(C)cc2)c1)[C@@H]1CCO[C@H](c2ccc(C(=O)N(C)C)cc2)C1` [BDF_24511039], the Inhibition percent was -0.31%.

For `Cc1ccccc1OCCC(=O)N1CCC(c2nc(N(C)C)ncc2-c2cccc(F)c2)C1` (stereo not drawn) [BDF_24539058], the Inhibition percent is on record as 9.04%.

Staying with this assay, now noted: primary screen of the Asinex library, sheet "Sargen output Asinex library", one well per compound, Batch Ref. 1.
On to `O=C(Cn1ncc2ccccc2c1=O)N1CCCCC1c1ncc(Cc2ccccc2F)o1` (stereo not drawn) [BDE_33507923], for which the Inhibition percent was found to be 3.33%.

In the case of `COc1cccc(Cc2cnc(C3CCCN(C(=O)Cn4ncc5ccccc5c4=O)C3)o2)c1` (stereo not drawn) [BDE_33507930], the Inhibition percent was -1.97%.

On to `O=C(Cn1ncc2ccccc2c1=O)N1CCCC(c2ncc(Cc3ccc(Cl)cc3)o2)C1` (stereo not drawn) [BDE_33507934], for which the Inhibition percent is 0.79%.

Consider `COc1ccccc1Cc1cnc(C2CCCN(C(=O)c3cc(-c4ccc(F)cc4)no3)C2)o1` (stereo not drawn) [BDE_33509516], for which the Inhibition percent amounted to 6.24%.

As for `COc1ccccc1Cc1cnc(C2CCCN(S(=O)(=O)c3cn(C)nc3C)C2)o1` (stereo not drawn) [BDE_33511387], the Inhibition percent came to 4.61%.

Turning to `COc1ccccc1Cc1cnc(C2CCCN(C(=O)c3ccc(Cc4ccccc4)nc3)C2)o1` (stereo not drawn) [BDE_33511644], the Inhibition percent amounted to 3.75%.

`COc1ccccc1Cc1cnc(C2CCCCN2C(=O)Cn2ncc3ccccc3c2=O)o1` (stereo not drawn) [BDE_33513118]: the Inhibition percent is given as 1.49%.

Consider `O=C(c1cc(-c2ccccc2F)n[nH]1)N1CCCCC1c1ncc(Cc2ccccc2)o1` (stereo not drawn) [BDE_33513466], for which the Inhibition percent was determined as 6.68%.

For `O=C(COc1ncnc2ccccc12)N1CCCCC1c1ncc(Cc2ccc(F)cc2)o1` (stereo not drawn) [BDE_33513539], the Inhibition percent is given as -1.92%.

In the case of `O=C(COc1ncnc2ccccc12)N1CCCCC1c1ncc(Cc2cccc(Cl)c2)o1` (stereo not drawn) [BDE_33513542], the Inhibition percent turned out to be 4.13%.

As for `COc1cccc(-c2cc(C(=O)N3CCCCC3c3ncc(Cc4ccccc4OC)o3)[nH]n2)c1` (stereo not drawn) [BDE_33513613], the Inhibition percent stood at 18.16%.

As to `O=C(NCC(=O)N1CCCCC1c1ncc(Cc2ccc(Cl)cc2)o1)c1cncc(O)c1` (stereo not drawn) [BDE_33513655], the Inhibition percent is reported as -11.18%.

`COc1ccc(OC)c(-c2cc(C(=O)N3CCCCC3c3ncc(Cc4ccccc4)o3)[nH]n2)c1` (stereo not drawn) [BDE_33513704]: the Inhibition percent turned out to be 18.69%.

For `O=C(c1cccc(-c2cncnc2)n1)N1CCCCC1c1ncc(Cc2cccc(F)c2)o1` (stereo not drawn) [BDE_33514471], the Inhibition percent is on record as -1.40%.

For the compound `COc1cccc(Cc2cnc(C3CCCCN3C(=O)c3cccnc3-c3cncs3)o2)c1` (stereo not drawn) [BDE_33514740], the Inhibition percent is 1.71%.

As for `CNc1nc(C2CCCCN2C(=O)CCCN(C)c2ccccc2)nc2c1CCN(C(C)=O)C2` (stereo not drawn) [BDE_33628015], the Inhibition percent is recorded as -2.14%.

In the case of `O=C(CN1CCC(C2CCCCN2C(=O)C2CCN(Cc3ccccn3)CC2)CC1)N1CCCC1` (stereo not drawn) [BDE_33629903], the Inhibition percent is on record as -3.25%.

Take `O=C(c1ccc(CN2CCOCC2)cc1)N1CCCC1c1ccnc(-c2cccc(Cl)c2)n1` (stereo not drawn) [BDE_33630026]: the Inhibition percent came to 0.26%.

Regarding `O=C(CCCC(=O)N1CCCCC1c1n[nH]cc1-c1ccc(C(F)(F)F)cc1)Nc1ccccn1` (stereo not drawn) [BDE_33631892], the Inhibition percent came to 4.13%.

Take `CCCN1CCN(C(=O)c2c[nH]cn2)CC(Cc2ccccc2-c2ccccc2OC)C1=O` (stereo not drawn) [BDE_33754981]: the Inhibition percent amounted to 0.35%.

For `COc1ccccc1-c1ccc(CN2C[C@@H](c3ccccc3F)[C@@]3(CCCC(=O)N3)C2)cc1` [BDF_20367643], the Inhibition percent turned out to be 18.11%.

Turning to `CC(=O)N1CCC(Cc2cc(-c3ccccc3)no2)(C(=O)N2CCC(C(C)(C)C)CC2)C1` (stereo not drawn) [BDF_23076577], the Inhibition percent is 2.56%.

Regarding `CC(=O)N1CCC(Cc2cc(-c3ccccc3)no2)(C(=O)Nc2ccccc2OC(C)C)C1` (stereo not drawn) [BDF_23076638], the Inhibition percent is given as 1.76%.

With `CC(=O)N[C@@H]1CCO[C@H](c2ccc(NC(=O)C(c3ccccc3)c3ccccc3)cc2)C1` [BDF_23111075], the Inhibition percent was 0.91%.

For the compound `COCCNC(=O)c1sc2ncccc2c1C1CCN(Cc2ccc3ncccc3c2)C1` (stereo not drawn) [BDF_24020930], the Inhibition percent is given as -0.43%.

With `CCN(CC)C(=O)CN1CCOC(c2c(C(=O)N3CCOCC3)sc3ncccc23)C1` (stereo not drawn) [BDF_24025276], the Inhibition percent was -4.29%.

For the compound `Cc1cc(CCCC(=O)N2CCC(c3nc(N(C)C)ncc3-c3cncnc3)C2)ccc1F` (stereo not drawn) [BDF_24540183], the Inhibition percent stood at 0.11%.

Consider `NC(=O)C1(Cc2cc(C3CCCCC3)no2)CCN(C(=O)CN2CCCCCC2=O)C1` (stereo not drawn) [BDF_24693170], for which the Inhibition percent is reported as -2.18%.
